# Source: publication PMC7949139, “The molecular basis of OH-PCB estrogen receptor activation” (The Journal of Biological Chemistry, 2021)
# Changes are numbered by the printed parent chain. Where two headings read alike, the source gives them in different places.
# Assays:
# SULT1E1 = molecular target: T1, SULT1E1 (Homo sapiens, UniProt P49888); experiment: Equilibrium binding studies (SULT1E1 intrinsic fluorescence); conditions: for Kd: pH 7.4, 25 °C, spread = one SD
# T1 construct: E. coli codon-optimized SULT1E1 coding region inserted into the PreScission Protease cleavage site; His/GST/MBP triple tag (N, cleaved yes); made in house; host or cells: E. coli BL21(DE3)
# T1 sequence (P49888 1-294): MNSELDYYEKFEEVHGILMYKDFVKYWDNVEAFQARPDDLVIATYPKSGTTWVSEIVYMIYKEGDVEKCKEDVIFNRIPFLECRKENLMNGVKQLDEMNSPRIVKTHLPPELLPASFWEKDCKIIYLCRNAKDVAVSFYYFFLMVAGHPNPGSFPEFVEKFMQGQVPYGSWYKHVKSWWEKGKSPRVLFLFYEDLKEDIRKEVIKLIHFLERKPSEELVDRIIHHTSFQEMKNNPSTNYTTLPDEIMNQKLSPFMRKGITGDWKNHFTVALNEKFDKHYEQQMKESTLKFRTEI
# Protocol: The binding of inhibitors to WT and mutant SULT1E1 was monitored via ligand-induced changes in the intrinsic fluorescence of the enzyme (λex= 290 nm, λem= 340 nm) ([4]). […] C. Titrations were performed in triplicate and the averaged data were least-squares fit to the following quadratic, single-site binding model: Io − ΔI∙(([L]+Etot + Kd) − [([L]+Etot + Kd)^2 − (4∙[L]∙Etot)]^1/2)/2∙Etot, where Io and ΔI represent fluorescent intensity at zero and infinite [L].
# SULT1E1 F80A/F75A = molecular target: T2, SULT1E1 F80A/F75A (Homo sapiens, UniProt P49888, F75A/F80A); experiment: Initial-rate studies (1-HP sulfonation; OH-PCB1 inhibition), double mutant; type: biochemical
# T2 construct: E. coli codon-optimized SULT1E1 coding region inserted into the PreScission Protease cleavage site; His/GST/MBP triple tag (N, cleaved yes); made in house; host or cells: E. coli BL21(DE3)
# T2 sequence (P49888 1-294 F75A/F80A): T1 sequence (P49888 1-294) with F75A, F80A
# Protocol: C. Reaction progress was monitored via the fluorescence change associated with 1-HP sulfonation (λex = 325 nm, λem = 370 nm ([51], [52])). Initial rates were measured during conversion to product of ≤5% of the concentration-limiting substrate consumed at the reaction endpoint. Velocities were determined in triplicate. Km and kcat were obtained by (1/v^4)-weighted least-squares fitting of the averaged data in double-reciprocal space (i.e., 1/v versus 1/[S]) ([66], [67]).
# Inhibition studies were performed as described above except: 1-HP was fixed (2.0 μM, 100 × Km), OH-PCBs were added (0.20–20 × Ki), and SULT1E1 was 0.20 nM (active sites). Ki was determined by least-squares fitting to a noncompetitive inhibition model ([66], [67]).
# [1] = molecular target: T3, spin-labeled SULT1E1, spin label attached at Cys residue 150 (C69S/N150C) (Homo sapiens, UniProt P49888, C69S/N150C); experiment: Initial-rate studies, spin-labeled construct (label at Cys 150); type: biochemical; conditions: spin label at Cys 150; parentheses = one SD; read-out: Ki OH-PCB1
# T3 construct: E. coli codon-optimized SULT1E1 coding region inserted into the PreScission Protease cleavage site; His/GST/MBP triple tag (N, cleaved yes); made in house; host or cells: E. coli BL21(DE3)
# T3 sequence (P49888 1-294 C69S/N150C): T1 sequence (P49888 1-294) with C69S, N150C
# Protocol: Spin labels were attached to the SULT1E1 scaffold at Cys residues that were site-specifically incorporated via PCR-based mutagenesis. Prior to creating spin-label attachment constructs, reactive Cys was removed from the native scaffold. Only one of the four native SULT1E1 Cys (i.e., C69) reacts with DTNB ([39]), and mutagenic conversion of C69 to ser produced a stable, fully active non-DTNB-reactive scaffold. Five individual cys-attachment constructs were prepared from the C69S mutant (G16C, K25C, N150C, Q163C, and N233C). Mutants were labeled (see, Experimental procedures) and the initial rate parameters (kcat, Km and Ki) of each spin-labeled mutant were determined (see, Experimental procedures, Initial-Rate studies) to evaluate whether the catalytic integrity of the constructs had been compromised by the insertions and/or spin label attachments. […]
# Labels (N-cyclohexylmale-imide or 3-maleimido-PROXYL) were added in 20-fold excess over reactive cysteine to a solution containing SULT1E1 construct (50 μM active sites), 0.50 mM PAP, and 50 mM KPO4 (pH 7.4), 25 °C ± 2 deg. […] The reactions were monitored by using DTNB to measure unreacted cysteine and were considered complete when >98% of the cysteine had reacted (∼3 h).
# C. Reaction progress was monitored via the fluorescence change associated with 1-HP sulfonation (λex = 325 nm, λem = 370 nm ([51], [52])). […]
smiles,measurement,setting,value
"Oc1ccc(-c2c(Cl)cccc2Cl)cc1 [OH-PCB1, 4ʹ-OH-2,6-dichlorobiphenol]",Kd,"SULT1E1; E2 4.0 μM (higher partner concentration), PAP 300 μM, read-out: Kd, ligand binding to enzyme species E⋅PAP⋅E2",0.062 µM
same,Kd,"SULT1E1; E2 4.0 μM, no PAP, read-out: Kd, ligand binding to enzyme species E⋅E2",0.066 µM
same,fold tighter binding in the presence of the partner ligand (OH-PCB1/E2 interaction),"SULT1E1; OH-PCB1: E⋅E2 versus E, E2: E⋅PAP⋅OH-PCB1 versus E⋅PAP",~12 fold
same,Kd,"SULT1E1; PAP 300 μM, read-out: Kd, ligand binding to enzyme species E⋅PAP",0.78 µM
same,Kd,"SULT1E1; free enzyme E, read-out: Kd, ligand binding to enzyme species E",0.75 µM
same,Fold Effect = Ki OH-PCB1/Ki OH-PCB1 WT,SULT1E1 F80A/F75A,113
same,Ki,"SULT1E1 F80A/F75A; noncompetitive inhibition model, parentheses = one SD",6.8 µM
same,Ki,[1],0.065 µM
